Measured values from US11690377B2, “Herbicidal composition and method of use thereof” (Belchim Crop Protection NV, priority 2017, dated 2023).

Key:
Assay type in all cases: in vivo
[1] = test system: AMATA - Common Waterhemp (Amaranthus rudis); test: Field trial, post-emergence weed control in corn, AMATA
Description: (§1) Field trials were conducted in Tennessee and Illinois (USA). The crop and weed species had been seeded and/or drill sown. In the case of post-emergence evaluation, seeded and/or drill sown plants were grown to a certain growth stage before application of the active ingredients (alone or as a mixture). In the case of pre-emergence evaluation, the application of the active ingredients was carried out after the plants were seeded and/or drilled sown. The trial was in the form of a randomized complete block. The percentage of weed control was assessed in several different instances after treatment until a maximum of 42 days after treatment, by comparison with untreated control plots by visual scoring. The herbicidal action was assessed qualitatively and quantitatively. To quantify the synergic effect resulting from the combination of mesotrione and pyridate, the inventors used the methodology described by Colby, in which a synergistic effect exists when the activity of a composition comprising both active compounds is greater than the sum of the activities of the two active compounds applied individually. The expected activity for the combination of mesotrione and pyridate can be calculated by the following so-called “Colby equation” (see S. R. Colby, “Calculating Synergistic and Antagonistic Responses of Herbicide Combinations”, Weeds 1967, 15, 20-22). Pa+b=(Pa+Pb)−(Pa*Pb/100) Wherein • Pa+b is the expected percent inhibition of weed growth by the combination of mesotrione and pyridate; • Pa is the percent inhibition of weed growth induced by mesotrione; • Pb is the percent inhibition of weed growth induced by pyridate. If the actual percent inhibition of weed growth induced by the combination of mesotrione and pyridate is greater than the expected percent inhibition (Pa+b) calculated from the Colby equation, then the activity of the combination is synergistic. The below Tables represent the herbicidal performance of the composition according to the invention, and also the herbicidal performance of the active ingredients alone, in controlling specific weeds. The expected percent inhibition of weed growth (derived from the Colby's equation) and the actual (observed) percent inhibition of weed growth is also presented in order to conclude on the synergistic effect of the combination according to the invention. Post-Emergence Herbicidal Performance of the Composition According to the Invention Against Broadleaf Weed in Corn.

[2] = test system: AMAPA - Palmer Pigweed (Amaranthus palmeri); test: Field trial, post-emergence weed control in corn, AMAPA; conditions: mesotrione 3 oz/A, pyridate 6.84 oz/A, combination 3 + 6.84 oz/A
Description: as §1

[3] = test system: IPOHE - Ivyleaf Morningglory (Ipomoea headrace); test: Field trial, post-emergence weed control in corn, IPOHE
Description: as §1

[4] = test system: SETVI - Green foxtail (Setaria viridis); test: Field trial, post-emergence weed control in corn, SETVI
Description: Field trials were conducted in Tennessee and Illinois (USA). The crop and weed species had been seeded and/or drill sown. In the case of post-emergence evaluation, seeded and/or drill sown plants were grown to a certain growth stage before application of the active ingredients (alone or as a mixture). In the case of pre-emergence evaluation, the application of the active ingredients was carried out after the plants were seeded and/or drilled sown. The trial was in the form of a randomized complete block. The percentage of weed control was assessed in several different instances after treatment until a maximum of 42 days after treatment, by comparison with untreated control plots by visual scoring. The herbicidal action was assessed qualitatively and quantitatively. To quantify the synergic effect resulting from the combination of mesotrione and pyridate, the inventors used the methodology described by Colby, in which a synergistic effect exists when the activity of a composition comprising both active compounds is greater than the sum of the activities of the two active compounds applied individually. The expected activity for the combination of mesotrione and pyridate can be calculated by the following so-called “Colby equation” (see S. R. Colby, “Calculating Synergistic and Antagonistic Responses of Herbicide Combinations”, Weeds 1967, 15, 20-22). Pa+b=(Pa+Pb)−(Pa*Pb/100) Wherein • Pa+b is the expected percent inhibition of weed growth by the combination of mesotrione and pyridate; • Pa is the percent inhibition of weed growth induced by mesotrione; • Pb is the percent inhibition of weed growth induced by pyridate. If the actual percent inhibition of weed growth induced by the combination of mesotrione and pyridate is greater than the expected percent inhibition (Pa+b) calculated from the Colby equation, then the activity of the combination is synergistic. The below Tables represent the herbicidal performance of the composition according to the invention, and also the herbicidal performance of the active ingredients alone, in controlling specific weeds. The expected percent inhibition of weed growth (derived from the Colby's equation) and the actual (observed) percent inhibition of weed growth is also presented in order to conclude on the synergistic effect of the combination according to the invention. […]

[5] = test system: AMAPA - Palmer Pigweed (Amaranthus palmeri); test: Field trial, pre-emergence weed control in corn, AMAPA; conditions: mesotrione 3.85 oz/A, pyridate 6.84 oz/A, combination 3.85 + 6.84 oz/A
Description: (§2) Field trials were conducted in Tennessee and Illinois (USA). The crop and weed species had been seeded and/or drill sown. In the case of post-emergence evaluation, seeded and/or drill sown plants were grown to a certain growth stage before application of the active ingredients (alone or as a mixture). In the case of pre-emergence evaluation, the application of the active ingredients was carried out after the plants were seeded and/or drilled sown. The trial was in the form of a randomized complete block. The percentage of weed control was assessed in several different instances after treatment until a maximum of 42 days after treatment, by comparison with untreated control plots by visual scoring. The herbicidal action was assessed qualitatively and quantitatively. To quantify the synergic effect resulting from the combination of mesotrione and pyridate, the inventors used the methodology described by Colby, in which a synergistic effect exists when the activity of a composition comprising both active compounds is greater than the sum of the activities of the two active compounds applied individually. The expected activity for the combination of mesotrione and pyridate can be calculated by the following so-called “Colby equation” (see S. R. Colby, “Calculating Synergistic and Antagonistic Responses of Herbicide Combinations”, Weeds 1967, 15, 20-22). Pa+b=(Pa+Pb)−(Pa*Pb/100) Wherein • Pa+b is the expected percent inhibition of weed growth by the combination of mesotrione and pyridate; • Pa is the percent inhibition of weed growth induced by mesotrione; • Pb is the percent inhibition of weed growth induced by pyridate. If the actual percent inhibition of weed growth induced by the combination of mesotrione and pyridate is greater than the expected percent inhibition (Pa+b) calculated from the Colby equation, then the activity of the combination is synergistic. The below Tables represent the herbicidal performance of the composition according to the invention, and also the herbicidal performance of the active ingredients alone, in controlling specific weeds. The expected percent inhibition of weed growth (derived from the Colby's equation) and the actual (observed) percent inhibition of weed growth is also presented in order to conclude on the synergistic effect of the combination according to the invention. Pre-Emergence Herbicidal Performance of the Composition According to the Invention Against Broadleaf Weed in Corn.

[6] = test system: ELEIN - Goosegrass (Eleusine indica); test: Field trial, pre-emergence weed control in corn, ELEIN; conditions: mesotrione 3.85 oz/A, pyridate 6.84 oz/A, combination 3.85 + 6.84 oz/A
Description: as §2

[7] = test system: IPOHE - Ivyleaf Morningglory (Ipomoea headrace); test: Field trial, pre-emergence weed control in corn, IPOHE; conditions: mesotrione 3.85, pyridate 6.84, combination 3.85 + 6.84 (rate unit not given)
Description: as §2

[8] = 7 days after treatment, mesotrione 2 oz./A, pyridate 2 oz./A, combination 2 + 2 oz./A
[9] = 7 days after treatment, mesotrione 3 oz./A, pyridate 3 oz./A, combination 3 + 3 oz./A
[10] = 7 days after treatment, mesotrione 3 oz./A, pyridate 6.84 oz./A, combination 3 + 6.84 oz./A
[11] = 14 days after treatment, mesotrione 2 oz./A, pyridate 2 oz./A, combination 2 + 2 oz./A
[12] = 14 days after treatment, mesotrione 3 oz./A, pyridate 3 oz./A, combination 3 + 3 oz./A
[13] = 14 days after treatment, mesotrione 3 oz./A, pyridate 6.84 oz./A, combination 3 + 6.84 oz./A
[14] = 28 days after treatment, mesotrione 2 oz./A, pyridate 2 oz./A, combination 2 + 2 oz./A
[15] = 28 days after treatment, mesotrione 3 oz./A, pyridate 3 oz./A, combination 3 + 3 oz./A
[16] = 28 days after treatment, mesotrione 3 oz./A, pyridate 6.84 oz./A, combination 3 + 6.84 oz./A
[17] = 8 days after treatment, mesotrione 2 oz/A, pyridate 2 oz/A, combination 2 + 2 oz/A
[18] = 8 days after treatment, mesotrione 3 oz/A, pyridate 3 oz/A, combination 3 + 3 oz/A
[19] = 8 days after treatment, mesotrione 3 oz/A, pyridate 6.84 oz/A, combination 3 + 6.84 oz/A
[20] = 16 days after treatment, mesotrione 2 oz/A, pyridate 2 oz/A, combination 2 + 2 oz/A
[21] = 16 days after treatment, mesotrione 3 oz/A, pyridate 3 oz/A, combination 3 + 3 oz/A
[22] = 16 days after treatment, mesotrione 3 oz/A, pyridate 6.84 oz/A, combination 3 + 6.84 oz/A
[23] = 21 days after treatment, mesotrione 2 oz/A, pyridate 2 oz/A, combination 2 + 2 oz/A
[24] = 21 days after treatment, mesotrione 3 oz/A, pyridate 3 oz/A, combination 3 + 3 oz/A
[25] = 21 days after treatment, mesotrione 3 oz/A, pyridate 6.84 oz/A, combination 3 + 6.84 oz/A
[26] = 14 days after treatment, mesotrione 2 oz/A, pyridate 2 oz/A, combination 2 + 2 oz/A
[27] = 14 days after treatment, mesotrione 3 oz/A, pyridate 3 oz/A, combination 3 + 3 oz/A
[28] = 38 days after treatment, mesotrione 2 oz/A, pyridate 2 oz/A, combination 2 + 2 oz/A
[29] = 38 days after treatment, mesotrione 3 oz/A, pyridate 3 oz/A, combination 3 + 3 oz/A

Row | SMILES | Mean percentage of weed control (observed) [1, 8] | Mean percentage of weed control (observed) [1, 9] | Mean percentage of weed control (observed) [1, 10] | Mean percentage of weed control (observed) [1, 11] | Mean percentage of weed control (observed) [1, 12] | Mean percentage of weed control (observed) [1, 13] | Mean percentage of weed control (observed) [1, 14] | Mean percentage of weed control (observed) [1, 15] | Mean percentage of weed control (observed) [1, 16] | Mean percentage of weed control (observed) ([2]; 8 days after treatment) | Mean percentage of weed control (observed) ([2]; 16 days after treatment) | Mean percentage of weed control (observed) ([2]; 21 days after treatment) | Mean percentage of weed control (observed) [3, 17] | Mean percentage of weed control (observed) [3, 18] | Mean percentage of weed control (observed) [3, 19] | Mean percentage of weed control (observed) [3, 20] | Mean percentage of weed control (observed) [3, 21] | Mean percentage of weed control (observed) [3, 22] | Mean percentage of weed control (observed) [3, 23] | Mean percentage of weed control (observed) [3, 24] | also measured
1 | CCCCCCCCSC(=O)Oc1cc(Cl)nnc1-c1ccccc1 [pyridate, Pyridate] | 0% | 0% | 10% | 0% | 0% | 12% | 0% | 0% | 6% | 23% | 33% | 33% | 28% | 40% | 10% | 18% | 10% | 23% | 18% | 10% | Mean percentage of weed control (observed) [3, 25]: 23%; Mean percentage of weed control (observed) [4, 26]: 10%; Mean percentage of weed control (observed) [4, 27]: 10%; Mean percentage of weed control (observed) [4, 23]: 10%; Mean percentage of weed control (observed) [4, 24]: 10%; Mean percentage of weed control (observed) [4, 28]: 10%; Mean percentage of weed control (observed) [4, 29]: 10%; Mean percentage of weed control (observed) ([5]; 7 days after treatment): 37%; Mean percentage of weed control (observed) ([5]; 14 days after treatment): 42%; Mean percentage of weed control (observed) ([5]; 28 days after treatment): 20%; Mean percentage of weed control (observed) ([5]; 42 days after treatment): 20%; Mean percentage of weed control (observed) ([6]; 7 days after treatment): 37%; Mean percentage of weed control (observed) ([6]; 14 days after treatment): 37%; Mean percentage of weed control (observed) ([7]; 7 days after treatment): 37%; Mean percentage of weed control (observed) ([7]; 14 days after treatment): 42%; Mean percentage of weed control (observed) ([7]; 28 days after treatment): 20%; Mean percentage of weed control (observed) ([7]; 42 days after treatment): 20%
2 | CS(=O)(=O)c1ccc(C(=O)C2C(=O)CCCC2=O)c([N+](=O)[O-])c1 [mesotrione, Mesotrione] | 73% | 73% | 68% | 75% | 73% | 80% | 73% | 68% | 85% | 53% | 55% | 55% | 43% | 68% | 65% | 35% | 63% | 78% | 38% | 60% | Mean percentage of weed control (observed) [3, 25]: 75%; Mean percentage of weed control (observed) [4, 26]: 48%; Mean percentage of weed control (observed) [4, 27]: 58%; Mean percentage of weed control (observed) [4, 23]: 50%; Mean percentage of weed control (observed) [4, 24]: 60%; Mean percentage of weed control (observed) [4, 28]: 50%; Mean percentage of weed control (observed) [4, 29]: 60%; Mean percentage of weed control (observed) ([5]; 7 days after treatment): 62%; Mean percentage of weed control (observed) ([5]; 14 days after treatment): 64%; Mean percentage of weed control (observed) ([5]; 28 days after treatment): 40%; Mean percentage of weed control (observed) ([5]; 42 days after treatment): 34%; Mean percentage of weed control (observed) ([6]; 7 days after treatment): 65%; Mean percentage of weed control (observed) ([6]; 14 days after treatment): 78%; Mean percentage of weed control (observed) ([7]; 7 days after treatment): 62%; Mean percentage of weed control (observed) ([7]; 14 days after treatment): 64%; Mean percentage of weed control (observed) ([7]; 28 days after treatment): 40%; Mean percentage of weed control (observed) ([7]; 42 days after treatment): 34%
